This is an account of results in patent US20220233566A1, “NOVEL CARBONATE COMPOUND HAVING PYRROLOPYRIMIDINE SKELETON OR PHARMACEUTICALLY ACCEPTABLE SALT THEREOF” (TAIHO PHARMACEUTICAL CO., LTD., priority 2019, published 2022).

SMILES strings stand for the structures.

Common to all, as to assay: Growth suppression activity to human tumor cell line (Evaluation 2)
Type in all cases: cell-based

The subject of test [1] is A431. The note with it: Human epidermoid carcinoma, A431, 3 days. As for the experimental part:
(§1) Human tumor cell lines different in type were suspended in mediums, seeded in individual wells of a multi-well plate and cultured. On the day after initiation of culture, serially diluted solutions of a compound were added. Culture was carried out for further 3 days. Cells were counted by a CellTiter-Glo (manufactured by Promega KK) in accordance with the protocol recommended by Promega KK. Cell viability was calculated in accordance with the equation shown below and the concentration (IC50 (nM)) of the compound at which 50% of cell growth is inhibited was obtained.
(§2) T: Intensity of light emitted from a well containing a compound
(§3) C: Intensity of light emitted from a well containing no compound

For test [2], the system named is A549. The following applies: A549, 72 h, Human lung cancer, A549, 3 days. As for the experimental part:
as §1, §2, §3

The subject of test [3] is HCC827. The following applies: Human lung cancer, HCC827, 3 days. As for the experimental part:
as §1, §2, §3

Test [4] deals with RKO. The note with it: 72 h, Human colorectal cancer, 3 days. As for the experimental part:
as §1, §2, §3

In general, IC50 refers to the concentration that inhibits the measured activity by half. A low value points to inhibition by little substance. As for `Nc1ncnc2c1c(Br)cn2[C@@H]1O[C@H](CO)[C@@H](O)[C@@H]1F` [Comparative Example 1, (2R,3R,4S,5R)-5-(4-amino-5-bromo-7H-pyrrolo[2,3-d]pyrimidin-7-yl)-4-fluoro-2-(hydroxymethyl) tetrahydrofuran-3-ol], the IC50 in test [1] (Homo sapiens, A-431, 72 h) is 32 nM; in test [1], 18 nM; in test [2], 14 nM; in test [3] (Homo sapiens, HCC827, 72 h), 228 nM; in test [3] it was 176 nM; in test [4] it was 31 nM.
